Measured values reported in US6524556B2, “Aerosol compositions” (Fujisawa Pharmaceutical Co., Ltd., priority 1995, dated 2003).

Experiments:
Assay type in all cases: physicochemical
[1] = Aerodynamic particle size distribution (USP23 Apparatus 1, multistage cascade impactor); details: for Mass Median Aerodynamic Diameter: 0.05% FK506 aerosol composition
Description: Aerodynamic Particle Size Distribution According to the conventional method in USP23 (Apparatus 1), the aerodynamic particle size distribution was assessed from FK506 amount in each stage after applying one mg FK506 to multistage cascade impactor by firing FK506 aerosol composition. FK506 measurement was conducted by HPLC method and the MMAD was calculated from the particle size distribution. The FK506 aerosol compositions were prepared according to a similar manner to that of the below-mentioned Example 2.

[2] = Effect of MCT content on the solubility of FK506 in HFAs; design: key to Solubility of FK506 in HFAs (solution or suspension): ∘: solution; —: suspension
Description: The addition of MCT enables the filling of FK506 as a solution into aerosol system. As a result, the change of spray performance will not be caused by aggregation of FK506 crystalline particles and the emitted dose uniformity of FK506 can be more reliable. The aerosol compositions used in this study were prepared according to a similar manner to that of Example 2.

[3] = Dissolution test of mist particles (JP12 paddle method); details: for T 50% (dissolution rate of FK506): distilled water 37° C., paddle 50 rpm
Description: Dissolution Test FK506 dissolution from the mist particles after firing FK506 aerosol composition was examined in distilled water at 37° C. using the paddle method at 50 rpm, according to the dissolution test method in JP12. The emitted dose from aerosol composition was adjusted to be one mg FK506 as a total in the test fluid. FK506 was measured by HPLC method. The FK506 aerosol compositions were prepared according to a similar manner to that of Example 2.

C=CC[C@@H]1/C=C(\C)C[C@H](C)C[C@H](OC)[C@H]2O[C@@](O)(C(=O)C(=O)N3CCCC[C@H]3C(=O)O[C@H](/C(C)=C/[C@@H]3CC[C@@H](O)[C@H](OC)C3)[C@H](C)[C@@H](O)CC1=O)[C@H](C)C[C@@H]2OC [FK506, 17-allyl-1,14-dihydroxy-12-[2-(4-hydroxy-3-methoxycyclohexyl)-1-methylvinyl]-23,25-dimethoxy-13,19,21,27-tetramethyl-11,28-dioxa-4-azatricyclo-[22.3.1.0^4,9]octacos-18-ene-2,3,10,16-tetraone]
Mass Median Aerodynamic Diameter ([1]; propellant HFA-134a, MCT content 0.5%): 1.6 μm | Mass Median Aerodynamic Diameter ([1]; propellant HFA-227, MCT content 0.05%): 1.5 μm | Mass Median Aerodynamic Diameter ([1]; propellant HFA-227, MCT content 0.5%): 1.7 μm | Mass Median Aerodynamic Diameter ([1]; propellant HFA-227, MCT content 1%): 2.5 μm | Mass Median Aerodynamic Diameter ([1]; propellant HFA-227, MCT content 2%): 3.1 μm | Mass Median Aerodynamic Diameter ([1]; propellant HFA-227, MCT content 5%): 4.0 μm | Mass median aerodynamic diameter (MMAD), trend ([1]; FK506 aerosol composition, addition of MCT): increased in proportion to MCT amount added | Solubility of FK506 in HFAs (solution or suspension) ([2]; MCT content 0.05%, FK506 content 0.05 w/v % in HFA-134a): ∘ | Solubility of FK506 in HFAs (solution or suspension) ([2]; MCT content 0.05%, FK506 content 0.05 w/v % in HFA-227): ∘ | Solubility of FK506 in HFAs (solution or suspension) ([2]; MCT content 0.05%, FK506 content 0.1 w/v % in HFA-227): — | Solubility of FK506 in HFAs (solution or suspension) ([2]; MCT content 0.05%, FK506 content 0.2 w/v % in HFA-134a): — | Solubility of FK506 in HFAs (solution or suspension) ([2]; MCT content 0.05%, FK506 content 0.2 w/v % in HFA-227): — | Solubility of FK506 in HFAs (solution or suspension) ([2]; MCT content 0.05%, FK506 content 0.5 w/v % in HFA-227): — | Solubility of FK506 in HFAs (solution or suspension) ([2]; MCT content 0.5%, FK506 content 0.05 w/v % in HFA-134a): ∘ | Solubility of FK506 in HFAs (solution or suspension) ([2]; MCT content 0.5%, FK506 content 0.05 w/v % in HFA-227): ∘ | Solubility of FK506 in HFAs (solution or suspension) ([2]; MCT content 0.5%, FK506 content 0.1 w/v % in HFA-227): ∘ | Solubility of FK506 in HFAs (solution or suspension) ([2]; MCT content 0.5%, FK506 content 0.2 w/v % in HFA-134a): — | Solubility of FK506 in HFAs (solution or suspension) ([2]; MCT content 0.5%, FK506 content 0.2 w/v % in HFA-227): — | Solubility of FK506 in HFAs (solution or suspension) ([2]; MCT content 0.5%, FK506 content 0.5 w/v % in HFA-227): — | Solubility of FK506 in HFAs (solution or suspension) ([2]; MCT content 2%, FK506 content 0.05 w/v % in HFA-134a): ∘ | Solubility of FK506 in HFAs (solution or suspension) ([2]; MCT content 2%, FK506 content 0.05 w/v % in HFA-227): ∘ | Solubility of FK506 in HFAs (solution or suspension) ([2]; MCT content 2%, FK506 content 0.1 w/v % in HFA-227): ∘ | Solubility of FK506 in HFAs (solution or suspension) ([2]; MCT content 2%, FK506 content 0.2 w/v % in HFA-134a): ∘ | Solubility of FK506 in HFAs (solution or suspension) ([2]; MCT content 2%, FK506 content 0.2 w/v % in HFA-227): ∘ | Solubility of FK506 in HFAs (solution or suspension) ([2]; MCT content 2%, FK506 content 0.5 w/v % in HFA-227): — | Solubility of FK506 in HFAs (solution or suspension) ([2]; MCT content 5%, FK506 content 0.05 w/v % in HFA-134a): ∘ | Solubility of FK506 in HFAs (solution or suspension) ([2]; MCT content 5%, FK506 content 0.05 w/v % in HFA-227): ∘ | Solubility of FK506 in HFAs (solution or suspension) ([2]; MCT content 5%, FK506 content 0.1 w/v % in HFA-227): ∘ | Solubility of FK506 in HFAs (solution or suspension) ([2]; MCT content 5%, FK506 content 0.2 w/v % in HFA-134a): ∘ | Solubility of FK506 in HFAs (solution or suspension) ([2]; MCT content 5%, FK506 content 0.2 w/v % in HFA-227): ∘ | Solubility of FK506 in HFAs (solution or suspension) ([2]; MCT content 5%, FK506 content 0.5 w/v % in HFA-227): — | Solubility of FK506 (change) ([2]; by mixing MCT into liquefied hydrofluoroalkanes): increased up | T 50% (dissolution rate of FK506) ([3]; HFA-134a, MCT content 0.5%, FK506 0.05%): 29 min | T 50% (dissolution rate of FK506) ([3]; HFA-134a, MCT content 0.5%, FK506 0.2%): 11 min | T 50% (dissolution rate of FK506) ([3]; HFA-134a, MCT content 2%, FK506 0.05%): 41 min | T 50% (dissolution rate of FK506) ([3]; HFA-134a, MCT content 2%, FK506 0.2%): 25 min | T 50% (dissolution rate of FK506) ([3]; HFA-227, MCT content 0%, FK506 0.05%): 5 min | T 50% (dissolution rate of FK506) ([3]; HFA-227, MCT content 0%, FK506 0.2%): 9 min | T 50% (dissolution rate of FK506) ([3]; HFA-227, MCT content 0.5%, FK506 0.05%): 30 min | T 50% (dissolution rate of FK506) ([3]; HFA-227, MCT content 0.5%, FK506 0.2%): 12 min | T 50% (dissolution rate of FK506) ([3]; HFA-227, MCT content 1%, FK506 0.05%): 38 min | T 50% (dissolution rate of FK506) ([3]; HFA-227, MCT content 1%, FK506 0.2%): 15 min | T 50% (dissolution rate of FK506) ([3]; HFA-227, MCT content 2%, FK506 0.05%): 43 min | T 50% (dissolution rate of FK506) ([3]; HFA-227, MCT content 2%, FK506 0.2%): 28 min | T 50% (dissolution rate of FK506) ([3]; HFA-227, MCT content 5%, FK506 0.05%): 51 min | T 50% (dissolution rate of FK506) ([3]; HFA-227, MCT content 5%, FK506 0.2%): 37 min | Release rate of FK506 from the mist particles, trend ([3]; addition of MCT): declined with addition of MCT
